Patent US8653056B2, “Method of preparation of a soluble formulation of water-insoluble pentacyclic and tetracyclic terpenoids, a soluble formulation of a pentacyclic or tetracyclic terpenoid and a pharmaceutical composition containing this soluble formulation” (Univerzita Karlova V Praze, Prirodovedecka Fakulta, priority 2006, dated 2014)

Assay: Concentration of dissolved triterpenoid in the aqueous cyclodextrin solution (HPLC-ESI MS)
Assay type: physicochemical
Conditions: solution method A: water, saturated sodium hydrogencarbonate solution, ethanol, 2-hydroxypropyl-γ-cyclodextrin, 50° C.
Method: (§1) Into the resulting colourless, viscous solution, soluble triterpene derivative (1.50 g) is added at once and the mixture is again vigorously stirred at the temperature of 50° C. […] After the triterpenoid is completely dissolved, the resulting clear solution is cooled to room temperature, filtered with a syringe filter (hydrophilic, pore size 0.22 μm) in order to be sterile and is placed in a refrigerator.
as §1, with “Method B: In a mixture of water (14.0 ml) and propylene glycol (6.0 ml), 2-hydroxypropyl-γ-cyklodextrin (7.00 g) is dissolved at the temperature of 50° C. under vigorous stirring. Into” for “Into”, “derivate (1.00” for “derivative (1.50”, “and” for “and the mixture”
Analytic Determination of the Concentration of Dissolved Triterpenoids in the Application Form and in Plasma Samples
HPLC-ESI MS technique was used or the determination of the concentration of dissolved triterpenoids. The samples were measured in one analytical batch with calibration solutions and blind control. The sample for the measurement was prepared from 50 μl of aqueous solution containing the inclusion compound by dilution with methanol to the volume of 10 ml. Subsequently, 10 μl of the sample solution after the first dilution is further diluted to 1 ml by the mobile phase. The blind control was obtained from 50 μl of pre-prepared aqueous solution of 2-hydroxypropyl-γ-cyklodextrin by dilution with methanol to 10 ml. Subsequently, 10 μl of the blind control solution after the first dilution is further diluted to 1 ml by methanol. Stock solutions of standards (concentration 0.2 mg/ml) were prepared by weighing 2.00 mg of analyte to 10 ml graduated flask and dissolution in methanol. The calibration samples were then prepared by dilution of the stock solution with mobile phase (0.4 μg/ml resp. 4 μg/ml).
The concentration was determined by comparison with standard and calculated to the original solution containing the inclusion compound.

Structure (SMILES)	Conc. of dissolved substance
C=C(C)C1CCC2(C(=O)OC)CCC3(C)C(CCC4C5(C)CCC(OC(=O)C6CC=CCC6C(=O)O)C(C)(C)C5CCC43C)C12 (mixture of isomers) [2m]	43000 µg/mL
C=C(C)C1CCC2(COC(=O)CCC(=O)O)CCC3(C)C(CCC4C5(C)CCC(OC(=O)CCC(=O)O)C(C)(C)C5CCC43C)C12 (stereo not shown) [1a, betulin dihemisuccinate]	54000 µg/mL
C=C(C)[C@@H]1CC[C@]2(COC(=O)c3ccccc3C(=O)O)CC[C@]3(C)[C@H](CC[C@@H]4[C@@]5(C)CC[C@H](OC(=O)c6ccccc6C(=O)O)C(C)(C)[C@@H]5CC[C@]43C)[C@@H]12 [1b, betulin dihemiphtalate]	39000 µg/mL
C=C(C)[C@@H]1CC[C@]2(C(=O)OCC)CC[C@]3(C)[C@H](CC[C@@H]4[C@@]5(C)CC[C@H](OC(=O)c6ccccc6C(=O)O)C(C)(C)[C@@H]5CC[C@]43C)[C@@H]12 [2c]	41000 µg/mL
C=C(C)[C@@H]1CC[C@]2(C(=O)O)CC[C@]3(C)[C@H](CC[C@@H]4[C@@]5(C)CC[C@H](OC(=O)CCC(=O)O)C(C)(C)[C@@H]5CC[C@]43C)[C@@H]12 [2e]	51000 µg/mL
C=C(C)[C@@H]1CC[C@]2(C(=O)O[C@@H]3O[C@H](CO)[C@@H](O)[C@H](O)[C@H]3O)CC[C@]3(C)[C@H](CC[C@@H]4[C@@]5(C)CC[C@H](O)C(C)(C)[C@@H]5CC[C@]43C)[C@@H]12 [2j]	59000 µg/mL
C=C(C)[C@@H]1CC[C@]2(C(=O)O)CC[C@]3(C)[C@H](CC[C@@H]4[C@@]5(C)CC[C@H](O)C(C)(C)[C@@H]5CC[C@]43C)[C@@H]12 [compound 2, Betulinic acid, reference compound]	38000 µg/mL
C=C(C=O)[C@@H]1CC[C@]2(C(=O)OCC)CC[C@]3(C)[C@H](CC[C@@H]4[C@@]5(C)CC[C@H](OC(=O)c6ccccc6C(=O)O)C(C)(C)[C@@H]5CC[C@]43C)[C@@H]12 [hemiphtalate 3b]	40000 µg/mL

Results, then the compound that gave them:

Conc. of dissolved substance	Structure (SMILES)
59000 µg/mL	CC(=O)O[C@H]1CC[C@]2(C)[C@H]3CC[C@@H]4C5=C(C(C)C)C(=O)C[C@]5(C(=O)OCC(=O)O)CC[C@@]4(C)[C@]3(C)CC[C@H]2C1(C)C [4a]
53000 µg/mL	CCOC(=O)[C@@]12CC[C@]3(C)[C@H](CC[C@@H]4[C@@]5(C)CC[C@H](OC(=O)CCC(=O)O)C(C)(C)[C@@H]5CC[C@]43C)C1=C(C(C)C)C(=O)C2 [4e]
28000 µg/mL	CCOC(=O)[C@@]12CC[C@]3(C)[C@H](CC[C@@H]4[C@@]5(C)CC[C@H](OC(=O)c6ccccc6C(=O)O)C(C)(C)[C@@H]5CC[C@]43C)C1=C(C(C)C)C(=O)C2 [4f]
58000 µg/mL	CCOC(=O)[C@@]12CC[C@]3(C)[C@H](CC[C@@H]4[C@@]5(C)CC[C@H](OC(=O)CC(C)(C)CC(=O)O)C(C)(C)[C@@H]5CC[C@]43C)C1=C(C(C)C)C(=O)C2 [4q]
44000 µg/mL	CCOC(=O)[C@@]12CC[C@]3(C)[C@H](CC[C@@H]4[C@@]5(C)CC[C@H](OC(=O)CC(C)(C)C(=O)O)C(C)(C)[C@@H]5CC[C@]43C)C1=C(C(C)C)C(=O)C2 [4r]
44000 µg/mL	COC(=O)[C@@]12CC[C@]3(C)[C@H](CC[C@@H]4[C@@]5(C)CC[C@H](OC(=O)CC(C)(C)C(=O)O)C(C)(C)[C@@H]5CC[C@]43C)C1=C(C(C)C)C(=O)C2 [4s]
44000 µg/mL	CC(C)C1=C2[C@H]3CC[C@@H]4[C@@]5(C)CC[C@H](OC(=O)CC(C)(C)CC(=O)O)C(C)(C)[C@@H]5CC[C@@]4(C)[C@]3(C)CC[C@@]2(C(=O)O)CC1=O [4u]
44000 µg/mL	CCOC(=O)[C@@]12CC[C@]3(C)[C@H](CC[C@@H]4[C@@]5(C)CC[C@H](OC(=O)COCC(=O)O)C(C)(C)[C@@H]5CC[C@]43C)C1=C(C(C)C)C(=O)C2 [4x]
73000 µg/mL	CC1(C)C(OC(=O)CCC(=O)O)CCC2(C)C1CCC1(C)C2CCC2C(=O)C(COC(=O)CCC(=O)O)(C(=O)O)CCC21C (stereo not shown) [7c]
72000 µg/mL	CC1(C)C(OC2OC(CO)C(O)C(O)C2O)CCC2(C)C1CCC1(C)C2CCC2C(=O)C(COC3OC(CO)C(O)C(O)C3O)(C(=O)O)CCC21C (stereo not shown) [7f]

Same assay, conditions: solution method B: water, propylene glycol, 2-hydroxypropyl-γ-cyclodextrin, 50° C.

Structure (SMILES)	Conc. of dissolved substance
C=C(C)[C@@H]1CC[C@]2(CO[C@@H]3O[C@H](CO)[C@@H](O)[C@H](O)[C@H]3O)CC[C@]3(C)[C@H](CC[C@@H]4[C@@]5(C)CC[C@H](O[C@@H]6O[C@H](CO)[C@@H](O)[C@H](O)[C@H]6O)C(C)(C)[C@@H]5CC[C@]43C)[C@@H]12 [1c, betulin diglucoside]	55000 µg/mL
C=C(C)[C@@H]1CC[C@]2(C(=O)OCC)CC[C@]3(C)[C@H](CC[C@@H]4[C@@]5(C)CC[C@H](O)C(C)(C)[C@@H]5CC[C@]43C)[C@@H]12 [2a, Ethyl-betulinate]	n (n = concentration lower than the detection threshold, i.e. 1 ng/ml)
C=C(C)[C@@H]1CC[C@]2(C(=O)OCC)CC[C@]3(C)[C@H](CC[C@@H]4[C@@]5(C)CC[C@H](O[C@@H]6O[C@H](CO)[C@@H](O)[C@H](O)[C@H]6O)C(C)(C)[C@@H]5CC[C@]43C)[C@@H]12 [2d]	43000 µg/mL
C=C(C)[C@@H]1CC[C@]2(C(=O)OC)CC[C@]3(C)[C@H](CC[C@@H]4[C@@]5(C)CC[C@H](O)C(C)(C)[C@@H]5CC[C@]43C)[C@@H]12 [2h, Methyl betulinate]	n (n = concentration lower than the detection threshold, i.e. 1 ng/ml)
C=C(C)[C@@H]1CC[C@]2(C(=O)O[C@@H]3O[C@H](CO)[C@@H](O)[C@H](O)[C@H]3O)CC[C@]3(C)[C@H](CC[C@@H]4[C@@]5(C)CC[C@H](O)C(C)(C)[C@@H]5CC[C@]43C)[C@@H]12 [2j]	70000 µg/mL
C=C(C=O)[C@@H]1CC[C@]2(C(=O)OCC)CC[C@]3(C)[C@H](CC[C@@H]4[C@@]5(C)CC[C@H](O)C(C)(C)[C@@H]5CC[C@]43C)[C@@H]12 [3a]	n (n = concentration lower than the detection threshold, i.e. 1 ng/ml)
COC(=O)C12CCC3(C)C(CCC4C5(C)CCC(O)C(C)(C)C5CCC43C)C1=C(C(C)C)C(=O)C2 (stereo not shown) [4d]	n (n = concentration lower than the detection threshold, i.e. 1 ng/ml)
C=C(C)[C@@H]1CC[C@]2(CO)CC[C@]3(C)[C@H](CC[C@@H]4[C@@]5(C)CC[C@H](O)C(C)(C)[C@@H]5CC[C@]43C)[C@@H]12 [Betulin, reference compound]	n (n = concentration lower than the detection threshold, i.e. 1 ng/ml)

Next, values leading:

Conc. of dissolved substance	Structure (SMILES)
47000 µg/mL	CC(=O)O[C@H]1CC[C@]2(C)[C@H]3CC[C@@H]4C5=C(C(C)C)C(=O)C[C@]5(C(=O)OCC[N+](C)(C)C)CC[C@@]4(C)[C@]3(C)CC[C@H]2C1(C)C.[Br-] [4b]
33000 µg/mL	CC(=O)O[C@H]1CC[C@]2(C)[C@H]3CC[C@@H]4C5=C(C(C)C)C(=O)C[C@]5(C(=O)OCC[n+]5ccccc5)CC[C@@]4(C)[C@]3(C)CC[C@H]2C1(C)C.[Br-] [4c]
60000 µg/mL	CCOC(=O)[C@@]12CC[C@]3(C)[C@H](CC[C@@H]4[C@@]5(C)CC[C@H](O[C@@H]6C[C@@H](OC(C)=O)[C@@H](OC(C)=O)[C@@H](COC(C)=O)O6)C(C)(C)[C@@H]5CC[C@]43C)C1=C(C(C)C)C(=O)C2 [4j]
61000 µg/mL	COC(=O)[C@@]12CC[C@]3(C)[C@H](CC[C@@H]4[C@@]5(C)CC[C@H](O[C@@H]6C[C@@H](OC(C)=O)[C@H](OC(C)=O)[C@@H](COC(C)=O)O6)C(C)(C)[C@@H]5CC[C@]43C)C1=C(C(C)C)C(=O)C2 [4l]
79000 µg/mL	CC1(C)C(OC2OC(CO)C(O)C(O)C2O)CCC2(C)C1CCC1(C)C2CCC2C(=O)C(COC3OC(CO)C(O)C(O)C3O)(C(=O)O)CCC21C (stereo not shown) [7f]
